Legend:
HCT-116 cells = assay: HCT-116 cell proliferation assay (resazurin); assay type: cell-based; details: Homo sapiens, K-Ras mutation B-Raf wild type, read-out: Cell Proliferation Inhibition IC50, nM HCT-116
human wild type C-Raf = biological target: T1, human wild type C-Raf (Homo sapiens, UniProt P04049); assay: Enzymatic assay of C-Raf kinase activity (Raf/MEK1 ATPase, coupled PK/LDH, A340); assay type: biochemical; details: read-out: Enzyme IC50, nM C-Raf
T1 construct: made in house
Procedure: Test compounds are evaluated for their inhibitory activities against one or more of human wild type B-Raf, human wild type C-Raf, human B-Raf V600E, human B-Raf V600E+T529I or human B-Raf V600E+G468A. T529I is a threonine to isoleucine B-Raf gatekeeper mutation and G468A is a B-Raf secondary mutation at G1403C in exon 11. The enzymatic assays of B-Raf, C-Raf and B-Raf mutations evaluate a property of Raf and MEK1 complex, which in the presence of ATP, catalyzes an enhanced ATP hydrolysis (Rominger, et al, Arch. Biochem. Biophys. 2007, 464: 130-137; US Patent Publication No. 2006/0211073). The ADP formed is monitored by the well-known coupled PK/LDH (pyruvate kinase/lactate dehydrogenase) system in the form of NADH oxidation, which can be monitored and detected spectrophotometrically by absorbance at 340 nm (A340; for principal of the method see Schindler et al, Science, 2000, 289: 1938-1942). Raf activated MEK1 ATPase activity is a property shared by all forms of Raf proteins.
Test compounds are evaluated for their inhibitory activities against one or more of wild type B-Raf, wild type C-Raf, B-Raf V600E, B-Raf V600E+T529I and B-Raf V600E+G468A. T529I is a B-Raf gatekeeper mutation and G468A is a B-Raf secondary mutation. The enzymatic assays of B-Raf, C-Raf and B-Raf mutations evaluate a property of Raf and MEK1 complex, which in the presence of ATP, catalyzes an enhanced ATP hydrolysis (Rominger, et al, Arch. Biochem. Biophys. 2007, 464: 130-137). The ADP formed is monitored by the well-known coupled PK/LDH (pyruvate kinase/lactate dehydrogenase) system in the form of NADH oxidation, which can be monitored and detected by absorbance at 340 nm (A340; for principal of the method see Schindler et al, Science, 2000, 289: 1938-1942). Raf activated MEK1 ATPase activity is a property shared by all forms of Raf proteins. In the B-Raf wild type enzymatic assay, the reaction mixture contains 1.2 nM B-Raf, 30 nM MEK1, 1000 uM ATP, 3.5 units (per 100 ul) of PK, 5 units (per 100 ul) of LDH, 1 mM phosphoenol pyruvate (PEP), and 280 uM of NADH. In the C-Raf assay, the reaction mixture contains 0.6 nM C-Raf, 26 nM MEK1, 2000 uM ATP, and the same amount of PK, LDH, PEP and NADH as above. In the B-Raf V600E assay, the reaction mixture contains […] B-Raf V600E, 26 nM MEK1, 200 uM ATP and the same amount of PK, LDH, PEP and NADH as above. In the B-RafV600E+T529I assay, the reaction mixture contains 6.2 nM B-Raf V600E+T529I, 30 nM MEK1, 200 uM ATP and the same amount of PK, LDH, PEP and NADH as above. In the B-Raf V600E+G468A assay, the reaction mixture contains 3.5 nM B-Raf, 30 nM MEK1, 200 uM ATP and the same amount of PK, LDH, PEP and NADH as above. All assays are started by mixing the above mixture with test compound and monitoring at A340 continuously for approximately 5 hr. […] In the aforementioned assays, the enzyme constructs can be screened prior to or after cleavage of the N-terminal purification tag.

A375 cells = assay: A375 cell proliferation assay (CellTiter-Blue/resazurin); assay type: cell-based; details: Homo sapiens, A-375, V600E mutation, read-out: Cell Proliferation Inhibition IC50, nM A375
Procedure: (§1) A375 cells (catalog #CRL-1619) are obtained from the American Type Culture Collection (ATCC, Manassas, Va.). Briefly, cells are grown in DMEM High Glucose supplemented with 10% characterized fetal bovine serum (Invitrogen, Carlsbad, Calif.) and 1% Penicillin/Streptomycin/L-Glutamine at 37 degrees Celsius, 5% CO2, and 95% humidity. Cells are allowed to expand until reaching 70-95% confluency at which point they are subcultured or harvested for assay use. A serial dilution of test compound is dispensed into a 384-well black clear bottom plate in triplicate. Six hundred twenty-five cells are added per well in 50 μL complete growth medium in the 384-well plate. Plates are incubated for 67 hours at 37 degrees Celsius, 5% CO2, and 95% humidity. At the end of the incubation period, 10 μL of a 440 μM solution of resazurin (Sigma, St. Louis, Mo.) in PBS is added to each well of the plate and plates are incubated for an additional 5 hours at 37 degrees Celsius, 5% CO2, and 95% humidity. Plates are read on a Synergy2 reader (Biotek, Winooski, Vt.) using an excitation of 540 nm and an emission of 600 nm. Data is analyzed using Prism software (Graphpad, San Diego, Calif.) to calculate IC50 values.
(§2) The A375, HT-29, and Colo-205 cells (ATCC) harbor a V600E mutation.

Colo205 cells = assay: Colo-205 cell proliferation assay (resazurin); assay type: cell-based; details: Homo sapiens; Colo-205 cells, V600E mutation; read-out: Cell Proliferation Inhibition IC50, nM Colo-205
Procedure: as §1, with “Colo205 cells” for “A375 cells”, “(catalog #HB-8307)” for “(catalog #CRL-1619)”, “in RPMI 1640” for “in DMEM High Glucose”, “Carlsbad, Calif.), 1 mM sodium pyruvate,” for “Carlsbad, Calif.)”, “reaching 30-60%” for “reaching 70-95%”, “triplicate. One thousand two-hundred fifty” for “triplicate. Six hundred twenty-five”
as §2

T1 sequence (P04049 whole entry): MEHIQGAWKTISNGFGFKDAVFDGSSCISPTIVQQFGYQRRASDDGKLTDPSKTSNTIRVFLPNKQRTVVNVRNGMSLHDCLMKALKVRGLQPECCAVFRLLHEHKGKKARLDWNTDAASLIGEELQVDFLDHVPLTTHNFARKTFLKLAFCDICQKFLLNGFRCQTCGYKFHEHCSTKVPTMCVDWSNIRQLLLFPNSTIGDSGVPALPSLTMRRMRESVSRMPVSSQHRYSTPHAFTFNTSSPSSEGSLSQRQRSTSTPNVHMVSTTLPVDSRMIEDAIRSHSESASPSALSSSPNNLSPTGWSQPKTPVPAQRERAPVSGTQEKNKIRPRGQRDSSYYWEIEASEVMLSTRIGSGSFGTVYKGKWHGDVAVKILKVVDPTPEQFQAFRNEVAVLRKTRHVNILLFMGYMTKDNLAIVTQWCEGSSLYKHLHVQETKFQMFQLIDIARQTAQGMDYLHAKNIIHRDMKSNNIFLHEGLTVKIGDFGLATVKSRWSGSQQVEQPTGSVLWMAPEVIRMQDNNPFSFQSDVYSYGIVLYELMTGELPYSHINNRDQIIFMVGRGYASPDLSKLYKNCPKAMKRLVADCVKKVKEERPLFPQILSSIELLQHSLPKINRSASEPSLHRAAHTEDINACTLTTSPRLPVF

IC50 (HCT-116 cells) [nM]	IC50 (human wild type C-Raf) [nM]	IC50 (A375 cells) [nM]	IC50 (Colo205 cells) [nM]	Structure (SMILES)
100 to 1000	< 150	100 to 1000	< 100	CNc1ncc2cc(-c3cc(NC(=O)NC[C@H](O)C(C)(C)C)c(F)cc3C)cnc2n1 [Example 18, 1-[2-Fluoro-4-methyl-5-(2-methylaminopyrido[2,3-d]pyrimidin-6-yl)phenyl]-3-[(2R)-2-hydroxy-3,3-dimethyl-butyl]urea]
1000 to 10000	< 150	1000 to 10000	100 to 1000	Cc1cc(F)c(NC(=O)NCCC(C)(C)F)cc1-c1cc2cnc(NCCO)nc2nc1C [Example 29, 1-(3-Fluoro-3-methylbutyl)-3-(2-fluoro-5-(2-((2-hydroxyethyl)amino)-7-methylpyrido[2,3-d]pyrimidin-6-yl)-4-methylphenyl)urea]
1000 to 10000	< 150	1000 to 10000	1000 to 10000	CNc1ncc2cc(-c3cc(NC(=O)NCCC(C)(C)C)c(F)cc3F)cnc2n1 [Example 36, 1-(2,4-Difluoro-5-(2-(methylamino)pyrido[2,3-d]pyrimidin-6-yl)phenyl)-3-(3,3-dimethylbutyl)urea methanesulfonate]
100 to 1000	< 150	< 100	< 100	COCCNc1ncc2cc(-c3cc(NC(=O)NC4CC(C)(C)C4)c(F)cc3C)c(C)nc2n1 [Example 31, 1-(3,3-Dimethylcyclobutyl)-3-(2-fluoro-5-(2-((2-methoxyethyl)amino)-7-methylpyrido[2,3-d]pyrimidin-6-yl)-4-methylphenyl)urea]
100 to 1000	< 150	< 100	< 100	CNc1ncc2cc(-c3cc(NC(=O)NCCC(C)(C)C)c(F)cc3Br)c(C)nc2n1 [Example 32, 1-(4-Bromo-2-fluoro-5-(7-methyl-2-(methylamino)pyrido[2,3-d]pyrimidin-6-yl)phenyl)-3-(3,3-dimethylbutyl)urea]
100 to 1000	< 150	100 to 1000	< 100	CNc1ncc2cc(-c3cc(NC(=O)NCCC(C)(C)OC)c(F)cc3C)c(C)nc2n1 [Example 14, 1-(2-Fluoro-4-methyl-5-(7-methyl-2-(methylamino)pyrido[2,3-d]pyrimidin-6-yl)phenyl)-3-(3-methoxy-3-methylbutyl)urea]
100 to 1000	< 150	< 100	< 100	CC(=O)Nc1ncc2cc(-c3cc(NC(=O)NCCC(C)(C)C)c(F)cc3C)c(C)nc2n1 [Example 33, N-(6-(5-(3-(3,3-Dimethylbutyl)ureido)-4-fluoro-2-methylphenyl)-7-methylpyrido[2,3-d]pyrimidin-2-yl)acetamide]

The remaining lines, values behind:

Structure (SMILES)	IC50 (HCT-116 cells) [nM]	IC50 (human wild type C-Raf) [nM]	IC50 (A375 cells) [nM]	IC50 (Colo205 cells) [nM]
CNc1ncc2cc(-c3cc(NC(=O)NC4CC(C)(C)C4)c(F)cc3C)c(C)nc2n1 [Example 6, 1-(3,3-Dimethylcyclobutyl)-3-(2-fluoro-4-methyl-5-(7-methyl-2-(methylamino)pyrido[2,3-d]pyrimidin-6-yl)phenyl)urea]	100 to 1000	< 150	< 100	< 100
CNc1ncc2cc(-c3ccc(F)c(NC(=O)NCCC(C)(C)C#N)c3)c(C)nc2n1 [Example 13, 1-(3-Cyano-3-methylbutyl)-3-(2-fluoro-5-(7-methyl-2-(methylamino)pyrido[2,3-d]pyrimidin-6-yl)phenyl)urea]	1000 to 10000	< 150	1000 to 10000	100 to 1000
CNc1ncc2cc(-c3cc(NC(=O)NCC(O)C(C)(C)C)c(F)cc3F)c(C)nc2n1 (stereo not shown) [Example 11, 1-[2,4-Difluoro-5-(7-methyl-2-methylamino-pyrido[2,3-d]pyrimidin-6-yl)phenyl]-3-(2-hydroxy-3,3-dimethyl-butyl)urea]	1000 to 10000	< 150	100 to 1000	100 to 1000
CNc1ncc2cc(-c3cc(NC(=O)NC4CC(C)(C)C4)c(F)cc3F)c(C)nc2n1 [Example 7, 1-(2,4-Difluoro-5-(7-methyl-2-(methylamino)pyrido[2,3-d]pyrimidin-6-yl)phenyl)-3-(3,3-dimethylcyclobutyl)urea]	100 to 1000	< 150	< 100	< 100
COCCNc1ncc2cc(-c3cc(NC(=O)NCCC(C)(C)C)c(F)cc3C)c(C)nc2n1 [Example 5, 1-(3,3-Dimethylbutyl)-3-(2-fluoro-5-(2-((2-methoxyethyl)amino)-7-methylpyrido[2,3-d]pyrimidin-6-yl)-4-methylphenyl)urea]	100 to 1000	< 150	< 100	< 100
CNc1ncc2cc(-c3cc(NC(=O)NCCC(C)(C)C)c(F)cc3F)c(C)nc2n1 [Example 1, 1-(2,4-Difluoro-5-(7-methyl-2-(methylamino)pyrido[2,3-d]pyrimidin-6-yl)phenyl)-3-(3,3-dimethylbutyl)urea]	100 to 1000	< 150	< 100	< 100
CNc1ncc2cc(-c3cc(NC(=O)NCC4CC4(C)C)c(F)cc3C)cnc2n1 (stereo not shown) [Example 9]	1000 to 10000	< 150	100 to 1000	100 to 1000
Cc1cc(F)c(NC(=O)NCC(O)C(C)(C)C)cc1-c1cc2cnc(N)nc2nc1C (stereo not shown) [Example 10]	1000 to 10000	< 150	100 to 1000	100 to 1000
CNc1ncc2cc(-c3cc(NC(=O)NCCC(C)(C)C#N)c(F)cc3F)c(C)nc2n1 [Example 12, 1-(3-Cyano-3-methylbutyl)-3-(2,4-difluoro-5-(7-methyl-2-(methylamino)pyrido[2,3-d]pyrimidin-6-yl)phenyl)urea]	1000 to 10000	< 150	1000 to 10000	100 to 1000
